Tested on: MV4:11 human cancer cell lines
Assay: Cellular viability / anti-proliferative assay, CellTiter-Glo, 5 day protocol
Format: cell-based
Conditions: Homo sapiens, MV4-11, 120 h, MV4:11 cells; 5 day incubation; CellTiter-Glo; mean of at least two replicates; read-out: GI50 on cellular proliferation of MV4:11 human cancer cell lines
Procedure: Cellular Viability of Human Tumor Cell Lines
Anti-proliferative activity using MLL-harboring cell lines. MV-4-11 and K562 cells are grown in IMDM media supplemented with 10% FBS and 1% penicillin/streptomycin, Molm-13 cells are cultured in RPMI-1640 media supplemented with 10% FBS and 1% penicillin/streptomycin. Viability assays are performed by dispensing 200 cells at 7200 cells/mL into each well of an opaque 384-well plate and adding compounds at the indicated concentrations in a final volume, of 32 μL. and a final concentration of DMSO of 0.3% for all samples. A certain range of compound concentrations is made through a series of 2-fold dilutions starting 30 μM at the highest, total 22 dilutions. After a set incubation period, 5 day protocol, the viability of cells in each well is assessed using the CellTiter-Glo assay (Promega), read on a 96 Microplane Luminometer (Cytation 3, BioTek). Serial dilutions of each cell type are performed in all assays to generate standard curves and the final densities of cells are determined within the dynamic range of the instrument. GI50 values are calculated based on XLfit software (IDBS, Guildford, UK) with Sigmoidal Dose-Response Model. Each compound is tested in minimum of two replicates. Data are expressed as mean.

SMILES | GI50 [nM]
COc1cc(-c2n[nH]c(=O)o2)c2nc(C)cc(N3CCc4c(cc(Cn5ccnc5)cc4-c4cn(C)nc4C(F)(F)F)C3=O)c2c1 [Example 180, 5-(4-(7-((1H-Imidazol-1-yl)methyl)-5-(1-methyl-3-(trifluoromethyl)-1H-pyrazol-4-yl)-1-oxo-3,4-dihydroisoquinolin-2(1H)-yl)-6-methoxy-2-methylquinolin-8-yl)-1,3,4-oxadiazol-2(3-1)-one] | 68
CCc1cc(Br)c2nccc(N3CCc4c(cc(Cn5ccnc5)cc4-c4cn(C)nc4C(F)(F)F)C3=O)c2c1 [Example 34, 7-((1H-imidazol-1-yl)methyl)-2-(8-bromo-6-ethylquinolin-4-yl)-5-(1-methyl-3-(trifluoromethyl)-1H-pyrazol-4-yl)-3,4-dihydroisoquinolin-1(2H)-one] | < 20
CCc1cc(C(=O)O)c2nccc(N3CCc4c(cc(Cn5ccnc5)cc4-c4cn(C)nc4C(F)(F)F)C3=O)c2c1 [Example 92, 4-(7-((1H-imidazol-1-yl)methyl)-5-(1-methyl-3-(trifluoromethyl)-1H-pyrazol-4-yl)-1-oxo-3,4-dihydroisoquinolin-2(1H)-yl)-6-ethylquinoline-8-carboxylic acid] | 388
CCc1cc(C(=O)NC2CCN(C)C2)c2nccc(N3CCc4c(cc(Cn5ccnc5)cc4-c4cn(C)nc4C(F)(F)F)C3=O)c2c1 (centres unmarked) [Example 193, 4-(7-((1H-Imidazol-1-yl)methyl)-5-(1-methyl-3-(trifluoromethyl)-1H-pyrazol-4-yl)-1-oxo-3,4-dihydroisoquinolin-2(1H)-yl)-6-ethyl-N-(1-methylpyrrolidin-3-yl)quinoline-8-carboxamide] | < 20
CCCCNC(=O)c1cc(OC)cc2c(N3CCc4c(cc(Cn5ccnc5)cc4-c4cn(C)nc4C(F)(F)F)C3=O)ccnc12 [Example 48, 4-(7-((1H-Imidazol-1-yl)methyl)-5-(1-methyl-3-(trifluoromethyl)-1H-pyrazol-4-yl)-1-oxo-3,4-dihydroisoquinolin-2(1H)-yl)-N-butyl-6-methoxyquinoline-8-carboxamide] | 119
CCc1cc(N2CCN(C3COC3)CC2)c2nccc(N3CCc4c(cc(Cn5ccnc5)cc4-c4cn(C)nc4C(F)(F)F)C3=O)c2c1 [Example 215, 7-((1H-Imidazol-1-yl)methyl)-2-(6-ethyl-8-(4-(oxetan-3-yl)piperazin-1-yl)quinolin-4-yl)-5-(1-methyl-3-(trifluoromethyl)-1H-pyrazol-4-yl)-3,4-dihydroisoquinolin-1(2H)-one] | < 20
COc1ccc2nc(C)cc(N3CCc4c(cc(Cn5ccnc5)cc4-c4cn(C)nc4C(F)(F)F)C3=O)c2c1 [Example 14, 7-((1H-Imidazol-1-yl)methyl)-2-(6-methoxy-2-methylquinolin-4-yl)-5-(1-methyl-3-(trifluoromethyl)-1H-pyrazol-4-yl)-3,4-dihydroisoquinolin-1(2H)-one] | 44
COc1cc(C(=O)O)c2nccc(N3CCc4c(cc(Cn5ccnc5)cc4-c4cn(C)nc4C(F)(F)F)C3=O)c2c1 [Example 40, 4-(7-((1H-Imidazol-1-yl)methyl)-5-(1-methyl-3-(trifluoromethyl)-1H-pyrazol-4-yl)-1-oxo-3,4-dihydroisoquinolin-2(1H)-yl)-6-methoxyquinoline-8-carboxylic acid] | 291
CCc1cc(N2CCN(CCOC)CC2)c2nccc(N3CCc4c(cc(Cn5ccnc5)cc4-c4cn(C)nc4C(F)(F)F)C3=O)c2c1 [Example 210] | < 20
COc1cc(C(=O)N2CCOCC2)c2nccc(N3CCc4c(cc(Cn5ccnc5)cc4-c4cn(C)nc4C(F)(F)F)C3=O)c2c1 [Example 46, 7-((1H-Imidazol-1-yl)methyl)-2-(6-methoxy-8-(morpholine-4-carbonyl)quinolin-4-yl)-5-(1-methyl-3-(trifluoromethyl)-1H-pyrazol-4-yl)-3,4-dihydroisoquinolin-1(2H)-one] | 444
CCc1cc(C2=CCN(C)CC2)c2nc(C)cc(N3CCc4c(cc(Cn5ccnc5)cc4-c4cn(C)nc4C(F)(F)F)C3=O)c2c1 [Example 147, 7-((1H-imidazol-1-yl)methyl)-2-(6-ethyl-2-methyl-8-(1-methyl-1,2,3,6-tetrahydropyridin-4-yl)quinolin-4-yl)-5-(1-methyl-3-(trifluoromethyl)-1H-pyrazol-4-yl)-3,4-dihydroisoquinolin-1(2H)-one] | 43
CCc1cc(C(=O)NCc2ccncc2)c2nccc(N3CCc4c(cc(Cn5ccnc5)cc4-c4cn(C)nc4C(F)(F)F)C3=O)c2c1 [Example 163, 4-(7-((1H-Imidazol-1-yl)methyl)-5-(1-methyl-3-(trifluoromethyl)-1H-pyrazol-4-yl)-1-oxo-3,4-dihydroisoquinolin-2(1H)-yl)-6-ethyl-N-(pyridin-4-ylmethyl)quinoline-8-carboxamide] | 56
CCc1cc(C(=O)NC)c2nccc(N3CCc4c(cc(Cn5ccnc5)cc4-c4cccnc4C(F)(F)F)C3=O)c2c1 [Example 199, 4-(7-((1H-imidazol-1-yl)methyl)-1-oxo-5-(2-(trifluoromethyl)pyridin-3-yl)-3,4-dihydroisoquinolin-2(1H)-yl)-6-ethyl-N-methylquinoline-8-carboxamide] | 131
CCc1cc(C(=O)NC)c2nc(C)cc(N3CCc4c(cc(Cn5ccnc5)cc4-c4cn(C)nc4C(F)(F)F)C3=O)c2c1 [Example 178] | < 20
COc1cc(N2CCN(C)CC2)c2nc(C)cc(N3CCc4c(cc(Cn5ccnc5)cc4-c4cn(C)nc4C(F)(F)F)C3=O)c2c1 [Example 102, 7-((1H-Imidazol-1-yl)methyl)-2-(6-methoxy-2-methyl-8-(4-methylpiperazin-1-yl)quinolin-4-yl)-5-(1-methyl-3-(trifluoromethyl)-1H-pyrazol-4-yl)-3,4-dihydroisoquinolin-1(2H)-one] | < 20
COc1cc(C#N)c2nccc(N3CCc4c(cc(Cn5ccnc5)cc4-c4cn(C)nc4C(F)(F)F)C3=O)c2c1 [Example 205] | < 20
COc1cc(N2CCN(C)C(=O)C2)c2nc(C)cc(N3CCc4c(cc(Cn5ccnc5)cc4-c4cn(C)nc4C(F)(F)F)C3=O)c2c1 [Example 105, 7-((1H-Imidazol-1-yl)methyl)-2-(6-methoxy-2-methyl-8-(4-methyl-3-oxopiperazin-1-yl)quinolin-4-yl)-5-(1-methyl-3-(trifluoromethyl)-1H-pyrazol-4-yl)-3,4-dihydroisoquinolin-1(2H)-one] | < 20
COc1cc(C(=O)N(C)C)c2nccc(N3CCc4c(cc(Cn5ccnc5)cc4-c4cn(C)nc4C(F)(F)F)C3=O)c2c1 [Example 45, 4-(7-((1H-Imidazol-1-yl)methyl)-5-(1-methyl-3-(trifluoromethyl)-1H-pyrazol-4-yl)-1-oxo-3,4-dihydroisoquinolin-2(1H)-yl)-6-methoxy-N,N-dimethylquinoline-8-carboxamide] | 326
CCc1cc(C(=O)NCC2CCCC2)c2nccc(N3CCc4c(cc(Cn5ccnc5)cc4-c4cn(C)nc4C(F)(F)F)C3=O)c2c1 [Example 170, 4-(7-((1H-Imidazol-1-yl)methyl)-5-(1-methyl-3-(trifluoromethyl)-1H-pyrazol-4-yl)-1-oxo-3,4-dihydroisoquinolin-2(1H)-yl)-N-(cyclopentylmethyl)-6-ethylquinoline-8-carboxamide] | 212
COc1cc(N2CCOCC2)c2nc(C)cc(N3CCc4c(cc(Cn5ccnc5)cc4-c4cn(C)nc4C(F)(F)F)C3=O)c2c1 [Example 146, 7-((1H-Imidazol-1-yl)methyl)-2-(6-methoxy-2-methyl-8-morpholinoquinolin-4-yl)-5-(1-methyl-3-(trifluoromethyl)-1H-pyrazol-4-yl)-3,4-dihydroisoquinolin-1(2H)-one] | 26
CCc1cc(N2CCN(C)C(=O)C2)c2nc(C)cc(N3CCc4c(cc(Cn5ccnc5)cc4-c4cn(C)nc4C(F)(F)F)C3=O)c2c1 [Example 111, 7-((1H-Imidazol-1-yl)methyl)-2-(6-ethyl-2-methyl-8-(4-methyl-3-oxopiperazin-1-yl)quinolin-4-yl)-5-(1-methyl-3-(trifluoromethyl)-1H-pyrazol-4-yl)-3,4-dihydroisoquinolin-1(2H)-one] | < 20
Cc1cc(N2CCN(C)CC2)c2cncc(N3CCc4c(cc(Cn5ccnc5)cc4-c4cn(C)nc4C(F)(F)F)C3=O)c2c1 [Example 100, 7-((1H-Imidazol-1-yl)methyl)-6′-methyl-5-(1-methyl-3-(trifluoromethyl)-1H-pyrazol-4-yl)-8′-(4-methylpiperazin-1-yl)-3,4-dihydro-1H-[2,4′-biisoquinolin]-1-one] | < 20
CCc1cc(-c2cccn2C)c2nccc(N3CCc4c(cc(Cn5ccnc5)cc4-c4cn(C)nc4C(F)(F)F)C3=O)c2c1 [Example 97, 7-((1H-Imidazol-1-yl)methyl)-2-(6-ethyl-8-(1-methyl-1H-pyrrol-2-yl)quinolin-4-yl)-5-(1-methyl-3-(trifluoromethyl)-1H-pyrazol-4-yl)-3,4-dihydroisoquinolin-1(2H)-one] | 83

— US12692249B2, “WDR5 inhibitors and modulators” (Vanderbilt University, priority 2019, dated 2026)
